Drawing on ChEMBL document CHEMBL3745610, “A dimeric urea of the bisabolene sesquiterpene from the Okinawan marine sponge Axinyssa sp. inhibits protein tyrosine phosphatase 1B activity in Huh-7 human hepatoma cells” (Bioorg Med Chem Lett, 2016), this text covers IC50 and inhibition for six compounds.

Structures are written as SMILES. The source made the active and inactive calls. No cut-off for these calls is given here.

Test [1] has as its target T1, Tyrosine-protein phosphatase non-receptor type 1 (Homo sapiens, UniProt P18031).
T1 sequence (P18031 whole entry): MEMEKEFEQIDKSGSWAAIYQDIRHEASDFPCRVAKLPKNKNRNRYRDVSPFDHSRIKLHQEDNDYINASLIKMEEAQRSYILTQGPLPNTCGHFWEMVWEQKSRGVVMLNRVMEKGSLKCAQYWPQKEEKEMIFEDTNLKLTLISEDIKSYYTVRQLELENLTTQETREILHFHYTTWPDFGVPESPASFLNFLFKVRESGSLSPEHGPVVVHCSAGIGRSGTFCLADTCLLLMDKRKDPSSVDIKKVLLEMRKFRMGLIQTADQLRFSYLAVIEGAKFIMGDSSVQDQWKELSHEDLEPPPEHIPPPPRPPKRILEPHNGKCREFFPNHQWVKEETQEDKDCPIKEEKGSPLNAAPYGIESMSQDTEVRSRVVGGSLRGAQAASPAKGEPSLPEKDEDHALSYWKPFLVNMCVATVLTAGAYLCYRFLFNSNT
As to the kind of experiment: Inhibition of recombinant human PTP1B using pNPP as substrate incubated for 10 mins prior to substrate addition measured after 30 mins by microplate reader analysis.

Test [2] has as its target T2, Tyrosine-protein phosphatase non-receptor type 1 (Homo sapiens) (UniProt P18031).
T2 sequence (whole entry): T1 sequence (P18031 whole entry)
Kind of test: Inhibition of PTP1B in human Huh7 cells assessed as increase in insulin-stimulated phosphorylated Akt level at 20 uM preincubated for 2 hrs followed by insulin stimulation for 5 mins by Western blot analysis. The conditions noted are these: Huh-7. Format: cell-based.

A short description of test [3]: Cytotoxicity against human HuH7 cells assessed as cell viability after 72 hrs by WST-1 assay. Format: cell-based. The conditions noted are these: Huh-7, 72 h. On the technique in general: Tetrazolium dyes change colour on reduction, which living cells bring about.
The nature of test [4]: Cytotoxicity against human EJ1 cells assessed as cell viability after 72 hrs by WST-1 assay. It counts as cell-based. The conditions noted are these: EJ1, 72 h.
Test [5] deals with T2, Tyrosine-protein phosphatase non-receptor type 1 (Homo sapiens). As to the kind of experiment: Inhibition of PTP1B in human Huh7 cells assessed as increase in phosphorylated Akt level at 20 uM after 2 hrs by Western blot analysis. Format: cell-based. As to conditions: Huh-7. For orientation: Immunoblotting shows a protein as a band on a membrane.
Test [6] shares this target. As to the kind of experiment: Inhibition of PTP1B in human Huh7 cells assessed as increase in phosphorylated Akt level at 50 uM after 2 hrs by Western blot analysis. It counts as cell-based. As to conditions: Huh-7.
Test [7] has the same target. Kind of test: Inhibition of PTP1B in human Huh7 cells assessed as increase in insulin-stimulated phosphorylated Akt level at 50 uM preincubated for 2 hrs followed by insulin stimulation for 5 mins by Western blot analysis. As to conditions: Huh-7. Format: cell-based.
The target is the same in test [8]. As to the kind of experiment: Inhibition of recombinant human PTP1B using pNPP as substrate at 36 uM incubated for 10 mins prior to substrate addition measured after 30 mins by microplate reader analysis.
The target is the same in test [9]. As to the kind of experiment: Inhibition of recombinant human PTP1B using pNPP as substrate at 24 uM incubated for 10 mins prior to substrate addition measured after 30 mins by microplate reader analysis.
Test [10] shares this target. Kind of test: Inhibition of PTP1B in human Huh7 cells assessed as increase in insulin-stimulated phosphorylated Akt level preincubated for 2 hrs followed by insulin stimulation for 5 mins by Western blot analysis. Format: cell-based. The conditions noted are these: Huh-7.

By IC50 is commonly meant the concentration that inhibits the measured activity by half. As usually defined, the inhibition is how much of the control response was suppressed. For `CC(C)=CCC[C@](C)(N)[C@H]1CC=C(C)CC1`, the IC50 in test [1] is over 45 µM; in test [3] it was over 50 µM; in test [4] it was over 50 µM. Moreover, the inhibition entry in test [2], in [5], in test [6] and in test [7] was “inactive” in each case.

In the case of `CC(C)[C@@H]1CC[C@](C)(N=C=S)[C@@H]2CC[C@@](C)(O)C=C12` [AXINISOTHIOCYANATE J], the inhibition in test [8] was 50%. Further, the IC50 in test [3] and in test [4] was over 50 µM in each case.

Turning to `C=C(C)[C@@H](C)/C=C/[C@@H](C)[C@H]1CC[C@@H]2[C@]1(C)CC[C@H]1[C@]23C=C[C@]2(C[C@@H](O)CC[C@]12C)OO3`, the inhibition in [9] turned out to be 50%. Also, the IC50 in [3] came out at 26 µM; in test [4], 21 µM.

For `CC1=C[C@H]2[C@@H](CC1)[C@@](C)(N=C=S)CC[C@H]2C(C)C`, the IC50 in [1] was 17 µM; in test [3] it was over 50 µM; in test [4], over 50 µM.

`CC(C)=CCC[C@](C)(NC(=O)N[C@@](C)(CCC=C(C)C)[C@H]1CC=C(C)CC1)[C@H]1CC=C(C)CC1`: the IC50 is 1.9 µM in test [1], over 50 µM in test [3] and over 50 µM in test [4]. Moreover, the inhibition entry in test [5] and in [6] was “inactive” in each case. For the same compound, the inhibition entry in test [10] was “Dose-dependent effect”.

On to `COc1cccc2c1C(=O)c1c(O)c3c(c(O)c1C2=O)C[C@@](O)(C(=O)CO)C[C@@H]3O[C@H]1C[C@H](N)[C@H](O)[C@H](C)O1` [DOXORUBICIN], for which the IC50 in [4] turned out to be 0.023 µM.
